Experimental data as given in PubChem BioAssay (NCI).
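96-well plates; 48 h exposure; 5 concentrations. Endpoints by linear interpolation between flanking doses. Not reached: highest tested concentration assigned. GI50: concentration for 50% inhibition of growth. The concentration for full growth arrest is given as TGI.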

Key:
Test in all cases: NCI tumour cell line growth inhibition, 48 h
786-0 renal = system: 786-0 renal
A498 renal = system: A498 renal
A549 NSCLC = system: A549 NSCLC
ACHN renal = system: ACHN renal
BT-549 breast = system: BT-549 breast
CAKI-1 renal = system: CAKI-1 renal
CCRF-CEM leukemia = system: CCRF-CEM leukemia
COLO 205 colon = system: COLO 205 colon
DU-145 prostate = system: DU-145 prostate
EKVX NSCLC = system: EKVX NSCLC
HCC-2998 colon = system: HCC-2998 colon
HCT-116 colon = system: HCT-116 colon
HCT-15 colon = system: HCT-15 colon
HL-60(TB) leukemia = system: HL-60(TB) leukemia
HOP-62 NSCLC = system: HOP-62 NSCLC
HOP-92 NSCLC = system: HOP-92 NSCLC
HS 578T breast = system: HS 578T breast
HT29 colon = system: HT29 colon
IGROV1 ovarian = system: IGROV1 ovarian
K-562 leukemia = system: K-562 leukemia
KM12 colon = system: KM12 colon
LOX IMVI melanoma = system: LOX IMVI melanoma
M14 melanoma = system: M14 melanoma
MALME-3M melanoma = system: MALME-3M melanoma
MCF7 breast = system: MCF7 breast
MDA-MB-231 breast = system: MDA-MB-231 breast
MDA-MB-435 = system: MDA-MB-435
MDA-MB-468 breast = system: MDA-MB-468 breast
MOLT-4 leukemia = system: MOLT-4 leukemia
NCI-H226 lung = system: NCI-H226 lung
NCI-H23 lung = system: NCI-H23 lung
NCI-H460 lung = system: NCI-H460 lung
NCI-H522 lung = system: NCI-H522 lung
NCI/ADR-RES ovarian = system: NCI/ADR-RES ovarian
OVCAR-3 ovarian = system: OVCAR-3 ovarian
OVCAR-4 ovarian = system: OVCAR-4 ovarian
OVCAR-5 ovarian = system: OVCAR-5 ovarian
OVCAR-8 ovarian = system: OVCAR-8 ovarian
PC-3 prostate = system: PC-3 prostate
RPMI-8226 leukemia = system: RPMI-8226 leukemia
RXF 393 renal = system: RXF 393 renal
SF-268 CNS = system: SF-268 CNS
SF-295 CNS = system: SF-295 CNS
SF-539 CNS = system: SF-539 CNS
SK-MEL-2 melanoma = system: SK-MEL-2 melanoma
SK-MEL-28 melanoma = system: SK-MEL-28 melanoma
SK-MEL-5 melanoma = system: SK-MEL-5 melanoma
SK-OV-3 ovarian = system: SK-OV-3 ovarian
SN12C renal = system: SN12C renal
SNB-19 CNS = system: SNB-19 CNS
SNB-75 CNS = system: SNB-75 CNS
SR leukemia = system: SR leukemia
SW-620 colon = system: SW-620 colon
T-47D breast = system: T-47D breast
TK-10 renal = system: TK-10 renal
U251 CNS = system: U251 CNS
UACC-257 melanoma = system: UACC-257 melanoma
UACC-62 melanoma = system: UACC-62 melanoma
UO-31 renal = system: UO-31 renal

## O=C(CSc1nnc(-c2ccc(-c3nc4ccc(Cl)cc4[nH]3)cc2)o1)Nc1ccc(Br)cc1
786-0 renal
  GI50: 2.23 µM
  TGI: 5.5 µM
A498 renal
  GI50: 17.3 µM
  TGI: 34.3 µM
A549 NSCLC
  GI50: 1.79 µM
  TGI: 3.95 µM
ACHN renal
  GI50: 2.4 µM
  TGI: 6.78 µM
BT-549 breast
  GI50: 2.95 µM
  TGI: 8.55 µM
CAKI-1 renal
  GI50: 2.34 µM
  TGI: 7.01 µM
CCRF-CEM leukemia
  GI50: 2.31 µM
  TGI: 10.4 µM
COLO 205 colon
  GI50: 24.5 µM
  TGI: > 100 µM
DU-145 prostate
  GI50: 4.56 µM
  TGI: 19.3 µM
EKVX NSCLC
  GI50: 3.33 µM
  TGI: 14.6 µM
HCC-2998 colon
  GI50: 15.3 µM
  TGI: 46.5 µM
HCT-116 colon
  GI50: 3.22 µM
  TGI: 14.4 µM
HCT-15 colon
  GI50: 2.94 µM
  TGI: 13.6 µM
HL-60(TB) leukemia
  GI50: 2.87 µM
  TGI: 11.5 µM
HOP-62 NSCLC
  GI50: 1.81 µM
  TGI: 3.96 µM
HOP-92 NSCLC
  GI50: 2.43 µM
  TGI: 9.03 µM
HS 578T breast
  GI50: 2.62 µM
  TGI: 9.96 µM
HT29 colon
  GI50: 3.42 µM
  TGI: 13.3 µM
IGROV1 ovarian
  GI50: 8.27 µM
  TGI: 21.5 µM
K-562 leukemia
  GI50: 2.49 µM
  TGI: 11.8 µM
KM12 colon
  GI50: 6 µM
  TGI: 31.8 µM
LOX IMVI melanoma
  GI50: 1.42 µM
  TGI: 2.8 µM
M14 melanoma
  GI50: 3.06 µM
  TGI: 11.1 µM
MALME-3M melanoma
  GI50: 1.94 µM
  TGI: 4.84 µM
MCF7 breast
  GI50: 3.02 µM
  TGI: 12.9 µM
MDA-MB-231 breast
  GI50: 1.76 µM
  TGI: 3.59 µM
MDA-MB-435
  GI50: 3.84 µM
  TGI: 14.3 µM
MDA-MB-468 breast
  GI50: 2.66 µM
  TGI: 9.97 µM
MOLT-4 leukemia
  GI50: 2.99 µM
  TGI: 14.2 µM
NCI-H226 lung
  GI50: 1.62 µM
  TGI: 4.58 µM
NCI-H23 lung
  GI50: 2 µM
  TGI: 4.49 µM
NCI-H460 lung
  GI50: 2.34 µM
  TGI: 6.32 µM
NCI-H522 lung
  GI50: 1.84 µM
  TGI: 5.01 µM
NCI/ADR-RES ovarian
  GI50: 4.93 µM
  TGI: 30.3 µM
OVCAR-3 ovarian
  GI50: 3.72 µM
  TGI: 11.7 µM
OVCAR-4 ovarian
  GI50: 4.81 µM
  TGI: 19.3 µM
OVCAR-5 ovarian
  GI50: 3.71 µM
  TGI: 17.5 µM
OVCAR-8 ovarian
  GI50: 2.17 µM
  TGI: 5.63 µM
PC-3 prostate
  GI50: 2.1 µM
  TGI: 5.78 µM
RPMI-8226 leukemia
  GI50: 5.05 µM
  TGI: 26.3 µM
RXF 393 renal
  GI50: 1.98 µM
  TGI: 5.15 µM
SF-268 CNS
  GI50: 3.45 µM
  TGI: 16.8 µM
SF-295 CNS
  GI50: 1.93 µM
  TGI: 4.99 µM
SF-539 CNS
  GI50: 1.65 µM
  TGI: 3.08 µM
SK-MEL-2 melanoma
  GI50: 2.98 µM
  TGI: 11.1 µM
SK-MEL-28 melanoma
  GI50: 1.77 µM
  TGI: 3.81 µM
SK-MEL-5 melanoma
  GI50: 2.98 µM
  TGI: 11.1 µM
SK-OV-3 ovarian
  GI50: 8.75 µM
  TGI: 27.5 µM
SN12C renal
  GI50: 1.74 µM
  TGI: 4.09 µM
SNB-19 CNS
  GI50: 3.76 µM
  TGI: 14.3 µM
SNB-75 CNS
  GI50: 2.39 µM
  TGI: 8.71 µM
SR leukemia
  GI50: 1.67 µM
  TGI: > 100 µM
SW-620 colon
  GI50: 4.3 µM
  TGI: 28.5 µM
T-47D breast
  GI50: 3.78 µM
  TGI: 20.2 µM
TK-10 renal
  GI50: 16.5 µM
  TGI: 33.4 µM
U251 CNS
  GI50: 1.88 µM
  TGI: 3.82 µM
UACC-257 melanoma
  GI50: 2.97 µM
  TGI: 12.8 µM
UACC-62 melanoma
  GI50: 1.84 µM
  TGI: 4.61 µM
UO-31 renal
  GI50: 4.03 µM
  TGI: 16.5 µM
